Test results as given in patent US11066446B2, “Cyclic peptide, affinity chromatography support, labeled antibody, antibody drug conjugate, and pharmaceutical preparation” (FUJIFILM Corporation, priority 2016, dated 2021).
Positions of bridges follow the written chain, without caps; N, C: chain ends. Non-standard residues stand in square brackets, D forms with d. No end group written: not given here. Lys(N3) = [N-]=[N+]=NCCCC[C@H](N)C(=O)O; Orn(N3) = [N-]=[N+]=NCCC[C@H](N)C(=O)O; Aha = [N-]=[N+]=NCC[C@H](N)C(=O)O; Bpg = L-bishomopropargylglycine; Hpra = C#CCC[C@H](N)C(=O)O; Pra = C#CC[C@H](N)C(=O)O

Key:
[1] = tested on: human immunoglobulin G (IgG) antibodies; assay: Relative binding activity to human IgG antibodies by surface plasmon resonance on immobilized sensor chip; details: for Relative binding activity: SPR (Biacore 3000, CM5 chip), 3,000 nM human IgG for 10 minutes at 25° C., relative to the cyclic peptide of Comparative Example 1 regarded as 1
Method: A commercially available CM5 (carboxymethyl dextran introduction-type, manufactured by GE Healthcare) sensor chip was set in Biacore 3000 (Biacore is a registered trademark) as a surface plasmon resonance device manufactured by GE Healthcare, a 4-(2-hydroxyethyl)-1-piperazineethanesulfonic acid (HEPES) buffer solution (20 mM HEPES-HCl, 150 mM NaCl, pH 7.4) for surface plasmon resonance (SPR) was stabilized at a flow rate of 10 μL/min, and 70 μL of an aqueous mixed solution of 0.2 M 1-(3-Dimethylaminopropyl)-3-ethylcarbodiimide (EDC) and […] of N-Hydroxysuccinimide (NHS) were injected thereinto. Thereafter, 100 μL of a sample solution of the cyclic peptide 1, which was diluted with a HEPES buffer solution at 0.2 g/L and treated with a polytetrafluoroethylene (PTFE) filter (manufactured by Advantec MFS, Inc.) having a diameter of 0.20 μm, was supplied to the sensor chip. Then, a blocking treatment was then performed on the sample solution by using an aqueous ethanolamine solution, and the sensor chip was washed with an aqueous sodium hydroxide solution, thereby performing immobilization. Likewise, 70 μL of an aqueous mixed solution of 0.2 M EDC and 0.04 M NHS was added to the same sensor chip without immobilizing the sample in another flow channel of the sensor chip, and then the blocking treatment and the washing treatment were performed. Hereinafter, the obtained immobilized sensor chip will be referred to as “immobilized sensor chip A”.
At 25° C., 3,000 nM of human immunoglobulin G (IgG) antibodies were added for 10 minutes to the immobilized sensor chip A prepared in (2) described above. Then, the antibody binding amount in the flow channel in which the cyclic peptide was immobilized immediately after the addition and in the flow channel in which the cyclic peptide was not immobilized was measured. From the difference in the antibody binding amount between the flow channel in which the cyclic peptide was immobilized and the flow channel in which the cyclic peptide was not immobilized and the amount of the immobilized cyclic peptide, the activity of the cyclic peptide was calculated. Furthermore, by regarding the activity of a cyclic peptide 5 in Comparative Example 1 as 1, the relative binding activity with respect to the human IgG antibodies was calculated.

[2] = Chemical resistance: rate of change in antibody binding amount of immobilized support before and after alkali treatment; type: physicochemical; details: for Chemical resistance (rate of change in the binding amount): peptide-immobilized HiTrap support, human IgG binding amount at 10% leak, before and after 0.05 M aqueous NaOH for 6 hours at 25° C.; for chemical resistance (in words): summary wording of the chemical resistance evaluation
Method: 1 mL of HiTrap NHS-activated HP Columns (coupling columns for ligand immobilization, manufactured by GE Healthcare) (HITRAP is a registered trademark) was reacted with 1 mL of 10 mg/mL cyclic peptide solution, which was prepared by dissolving the cyclic peptide 1 in an immobilization buffer (10% DMSO in 200 mM NaHCO3, 500 mM NaCl, pH 8.3), for 1 hour at 25° C. The reaction product was blocked by an aqueous ethanolamine solution and washed, thereby obtaining a cyclic peptide 1-immobilized support. Hereinafter, the obtained immobilized support will be referred to as “immobilized support A”.
The immobilized support A prepared in (4) described above was connected to a chromatography system AKTA avant 25 (manufactured by GE Healthcare) (AKTAAVANT is a registered trademark), and the antibody binding amount was measured. The columns were equilibrated using an equilibration solution (20 mM phosphoric acid buffer, 150 mM NaCl, pH 7.4), and then 20 mL of a 5 mg/mL human IgG antibody standard buffer solution (20 mM phosphoric acid buffer, 150 mM NaCl, pH 7.4) was injected thereinto at a flow rate of 0.21 mL/min. Thereafter, the columns were washed with 5 mL of a postloading wash solution (20 mM phosphoric acid buffer, 150 mM NaCl, pH 7.4) caused to flow at the same flow rate and then washed with 5 mL of a pre-elution wash solution (20 mM phosphoric acid buffer, 1 M NaCl, pH 7.4) at the same flow rate. Then, 5 mL of an elution solution (100 mM citric acid buffer, pH 3.2) was caused to flow at the same flow rate. Subsequently, 5 mL of a cleaning in place (CIP) solution (0.1 M sodium hydroxide) was caused to flow at the same flow rate, and then 5 mL of a reequilibration solution (20 mM phosphoric acid buffer, 150 mM NaCl, pH 7.4) was caused to flow at the same flow rate. At this time, by using an immunoglobulin G (IgG) elution peak obtained by monitoring absorbance at 280 nm, the amount of antibodies binding to the support until 10% of the antibody stock solution leaked out of the support was measured as the antibody binding amount. Then, the immobilized support A was filled with a 0.05 M aqueous NaOH solution for 6 hours at 25° C. and left to stand, the antibody binding amount of the support was then measured in the same manner, and a rate of change in the binding amount was calculated from the antibody binding amount before and after the alkali treatment.

Substance	Relative binding activity [1]	Chemical resistance (rate of change in the binding amount) [2]	also measured
Asp-[Lys(N3)]-Ala-Tyr-His-Leu-Gly-Glu-Leu-Val-Trp-[Pra]-Thr-Lys-Lys (D[Lys(N3)]AYHLGELVW[Pra]TKK; triazole 2-12) [Cyclic peptide 10, [Lys(N3)] and [Pra] cross-linked through a triazole bond]	C (The relative binding activity was higher than 200% and equal to or lower than 400% of the binding activity of the cyclic peptide 5)	A (The rate of change in the binding amount was higher than 90%)	
Asp-[Hpg]-Ala-Tyr-His-Leu-Gly-Glu-Leu-Val-Trp-[Abu(N3)]-Thr-Lys-Lys (D[Hpra]AYHLGELVW[Aha]TKK; triazole 2-12) [Cyclic peptide 12, [Hpg] and [Abu(N3)] cross-linked through a triazole bond]	A (The relative binding activity was higher than 800% of the binding activity of the cyclic peptide 5)	A (The rate of change in the binding amount was higher than 90%)	
Asp-[Pra]-Ala-Tyr-His-Leu-Gly-Glu-Leu-Val-Trp-[Lys(N3)]-Thr-Lys-Lys (D[Pra]AYHLGELVW[Lys(N3)]TKK; triazole 2-12) [Cyclic peptide 9, [Pra] and [Lys(N3)] cross-linked through a triazole bond]	B (The relative binding activity was higher than 400% and equal to or lower than 800% of the binding activity of the cyclic peptide 5)	A (The rate of change in the binding amount was higher than 90%)	Relative binding activity ([1]; listed as Example 9): C or a higher grade
Asp-[Nva(N3)]-Ala-Tyr-His-Leu-Gly-Glu-Leu-Val-Trp-[Bpg]-Thr-Lys-Lys (D[Orn(N3)]AYHLGELVW[Bpg]TKK; triazole 2-12) [Cyclic peptide 16, [Nva(N3)] and [Bpg] cross-linked through a triazole bond]	B (The relative binding activity was higher than 400% and equal to or lower than 800% of the binding activity of the cyclic peptide 5)	A (The rate of change in the binding amount was higher than 90%)	Relative binding activity ([1]; listed as Example 16): C or a higher grade
Asp-[Hpg]-Ala-Tyr-His-Leu-Gly-Glu-Leu-Val-Trp-[Nva(N3)]-Thr-Lys-Lys (D[Hpra]AYHLGELVW[Orn(N3)]TKK; triazole 2-12) [Cyclic peptide 15, [Hpg] and [Nva(N3)] cross-linked through a triazole bond]	B (The relative binding activity was higher than 400% and equal to or lower than 800% of the binding activity of the cyclic peptide 5)	A (The rate of change in the binding amount was higher than 90%)	
Asp-[Bpg]-Ala-Tyr-His-Leu-Gly-Glu-Leu-Val-Trp-[Lys(N3)]-Thr-Lys-Lys (D[Bpg]AYHLGELVW[Lys(N3)]TKK; triazole 2-12) [Cyclic peptide 3, [Bpg] and [Lys(N3)] cross-linked through a triazole bond]	A (The relative binding activity was higher than 800% of the binding activity of the cyclic peptide 5)	A (The rate of change in the binding amount was higher than 90%)	
Asp-[Abu(N3)]-Ala-Tyr-His-Leu-Gly-Glu-Leu-Val-Trp-[Pra]-Thr-Lys-Lys (D[Aha]AYHLGELVW[Pra]TKK; triazole 2-12) [Cyclic peptide 7, [Abu(N3)] and [Pra] cross-linked through a triazole bond]	B (The relative binding activity was higher than 400% and equal to or lower than 800% of the binding activity of the cyclic peptide 5)	A (The rate of change in the binding amount was higher than 90%)	
Asp-[Abu(N3)]-Ala-Tyr-His-Leu-Gly-Glu-Leu-Val-Trp-[Bpg]-Thr-Lys-Lys (D[Aha]AYHLGELVW[Bpg]TKK; triazole 2-12) [Cyclic peptide 13, [Abu(N3)] and [Bpg] cross-linked through a triazole bond]	B (The relative binding activity was higher than 400% and equal to or lower than 800% of the binding activity of the cyclic peptide 5)	A (The rate of change in the binding amount was higher than 90%)	
Asp-[Lys(N3)]-Ala-Tyr-His-Leu-Gly-Glu-Leu-Val-Trp-[Hpg]-Thr-Lys-Lys (D[Lys(N3)]AYHLGELVW[Hpra]TKK; triazole 2-12) [Cyclic peptide 8, [Lys(N3)] and [Hpg] cross-linked through a triazole bond]	B (The relative binding activity was higher than 400% and equal to or lower than 800% of the binding activity of the cyclic peptide 5)	A (The rate of change in the binding amount was higher than 90%)	
Asp-[Abu(N3)]-Ala-Tyr-His-Arg-Gly-Glu-Leu-Val-Trp-[Pra]-Thr-Lys-Lys (D[Aha]AYHRGELVW[Pra]TKK; triazole 2-12) [Cyclic peptide 6, [Abu(N3)] and [Pra] cross-linked through a triazole bond]	B (The relative binding activity was higher than 400% and equal to or lower than 800% of the binding activity of the cyclic peptide 5)	B (The rate of change in the binding amount was higher than 80% and equal to or lower than 90%)	
Asp-[Cys]-Ala-Tyr-His-Arg-Gly-Glu-Leu-Val-Trp-[Cys]-Thr-Lys-Lys (DCAYHRGELVWCTKK; disulfide 2-12) [Cyclic peptide 19, two [Cys]'s cross-linked through a disulfide bond; comparative, reference compound]	A (The relative binding activity was higher than 800% of the binding activity of the cyclic peptide 5)	E (The rate of change in the binding amount was equal to or lower than 50%)	chemical resistance (in words) [2]: poor
Asp-[Glu]-Ala-Tyr-His-Leu-Gly-Glu-Leu-Val-Trp-[Lys]-Thr-Lys-Lys [Cyclic peptide 18, reference compound]	E (The relative binding activity was equal to or lower than 100% of the binding activity of the cyclic peptide 5)	B (The rate of change in the binding amount was higher than 80% and equal to or lower than 90%)	antibody binding properties (in words) ([1]; summary wording of the relative binding activity evaluation, listed as Comparative Example 2): excellent and poor; chemical resistance (in words) ([2]; listed as Comparative Example 2): poor and sufficient
